From patent publication US12497392B2, “EP300/CBP inhibitor” (HINOVA PHARMACEUTICALS INC., priority 2019, dated 2025) come the findings set out here.

Like-named read-outs stand apart in the source and are kept apart here.

One assay deals with MCF-7 cells. In words: Combination with CDK4/6 inhibitor palbociclib, proliferation of MCF-7 breast cancer cells. As to conditions: for IC50: Homo sapiens, read-out: IC50 against MCF-7 cells. The class given is cell-based. The procedure:
(§1) Prior to use, the stock solution was diluted in a ratio of 1:3 with DMSO and then further diluted in a ratio of 1:3 to obtain 9 gradient concentrations. Each concentration of compound was diluted in a ratio of 1:200 with culture medium (to ensure the concentration of DMSO in the culture system was 0.1%). Two wells were set for each concentration. 20 μL of diluted compound solution was added to the cell culture well (with a final concentration of 10 μM, 3.3 μM, 1.1 μM, etc.); the stock solution of palbociclib was diluted with the culture medium as 500 nM, 150 nM, 50 nM, 5 nM, respectively, and then 20 μL of diluted palbociclib solution was added to the cell culture well ([…]). The plate was gently shaken to mix well. In addition, three negative control wells containing only cells and three blank control wells containing only culture medium (6 wells being each added with DMSO diluted in a ratio of 1:200 using 20 μL of culture medium) were included. 2. Test Results: • (1) After the plate was cultured for 6 days, 10 μL of CCK-8 was added to each well, and then the plate was continually cultured in a 5% CO2 incubator at 37° C. for 2.5 h. • (2) The absorbance (OD value) was measured at 450 nm with a microplate reader. • (3) Data were analyzed using the Dose-response-inhibition equation in the software GraphPad Prisms 6 to obtain IC50 values. 3. Experimental Results
Using the same method as in Example 4, CWR22RV1 cells were replaced with MCF-7 cells, and for the inhibitory activities against the proliferation of MCF-7 cells, the IC50 values (nM) of the compounds according to the present invention, palbociclib, and the combination of the compound according to the present invention and palbociclib were tested and calculated.

The next assay concerns CWR22RV1 cells. The assay is described as follows: Combination with CDK4/6 inhibitor palbociclib, proliferation of CWR22RV1 prostate cancer cells. The class given is cell-based. To be noted: for IC50: read-out: IC50 against CWR22RV1 cells. How it is done: as §1
Setting [1] is: compound 172 + palbociclib, in words.

What is called IC50 is the concentration needed to halve the response being measured.

As for `CCO[C@H]1CC[C@H](n2c([C@@H]3CCOC(=O)N3c3ccc(Cl)c(F)c3)nc3cc(-c4c(C)noc4C)ccc32)CC1` [Compound 172, (S)-3-(4-chloro-3-fluorophenyl)-4-(5-(3,5-dimethylisoxazol-4-yl)-1-((trans)-4-ethoxycyclohexyl)-1H-benzo[d]imidazol-2-yl)-1,3-oxazinane-2-one], the IC50 was 0.027 µM with MCF-7 cells (MCF7, 172 in combination with 10 nM palbociclib); 0.009 µM with MCF-7 cells (MCF7, 172 in combination with 100 nM palbociclib); 0.007 µM with MCF-7 cells (MCF7, 172 in combination with 300 nM palbociclib); less than 0.01 µM with MCF-7 cells (MCF7, 172 in combination with 100-300 nM of palbociclib); 0.072 µM in the assay with MCF-7 cells (MCF7, administrated alone); 0.026 µM with CWR22RV1 cells (CWR22Rv1, 172 in combination with 10 nM palbociclib). Further, the half-maximal inhibitory concentration (IC50) was less than 0.001 µM in the assay with CWR22RV1 cells (CWR22Rv1, 172 in combination with 100 nM palbociclib); less than 0.001 µM in the assay with CWR22RV1 cells (CWR22Rv1, 172 in combination with 100-300 nM of palbociclib); 1.5 µM in the assay on CWR22RV1 cells (CWR22Rv1, administrated alone). The “effect of combination with palbociclib on MCF-7 breast cancer cells” value in the assay on MCF-7 cells (setting [1]) is listed as “synergistic inhibitory effect”. The “effect of combination with palbociclib on CWR22RV1 prostate cancer cells” value with CWR22RV1 cells (setting [1]) was “synergistic inhibitory effect”.
